The text below walks through data of ChEMBL document CHEMBL1156452, “Minocycline down-regulates MHC II expression in microglia and macrophages through inhibition of IRF-1 and protein kinase C (PKC)alpha/betaII” (J Biol Chem, 2007).

The target in experiment [1] is Protein kinase C alpha type (Homo sapiens, UniProt P17252). Put plainly: Inhibition of PKCalpha.
Experiment [2] deals with T1, Interferon regulatory factor 1 (Rattus norvegicus) (UniProt P23570).
T1 sequence (whole entry): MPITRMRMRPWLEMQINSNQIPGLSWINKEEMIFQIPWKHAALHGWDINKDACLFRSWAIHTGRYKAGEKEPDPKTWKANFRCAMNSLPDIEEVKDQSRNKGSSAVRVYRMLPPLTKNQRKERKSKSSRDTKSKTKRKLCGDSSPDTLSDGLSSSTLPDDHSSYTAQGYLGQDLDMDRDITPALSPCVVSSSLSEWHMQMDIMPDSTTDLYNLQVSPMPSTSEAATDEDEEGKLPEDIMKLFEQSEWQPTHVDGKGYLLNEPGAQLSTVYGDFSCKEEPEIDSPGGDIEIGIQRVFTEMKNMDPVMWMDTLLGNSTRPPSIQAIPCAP
Put plainly: Suppression of IFN-gamma-induced IFN-gamma regulatory factor 1 nuclear translocation in Sprague-Dawley rat primary microglial cells at 1.3 uM by Western blotting.

A short description of experiment [3]: Decrease in IFN-gamma-induced MHC2 expression in Sprague-Dawley rat primary microglial cells at 1.3 uM. The experiment is classed as cell-based. The arrangement: scale not given: the % may be the effect or the level left. To be noted: Microglia.
The target of experiment [4] is Protein kinase C beta type (Homo sapiens, UniProt P05771). Put plainly: Inhibition of PKCbeta1.
Chain of Protein kinase C beta type (P05771 whole entry): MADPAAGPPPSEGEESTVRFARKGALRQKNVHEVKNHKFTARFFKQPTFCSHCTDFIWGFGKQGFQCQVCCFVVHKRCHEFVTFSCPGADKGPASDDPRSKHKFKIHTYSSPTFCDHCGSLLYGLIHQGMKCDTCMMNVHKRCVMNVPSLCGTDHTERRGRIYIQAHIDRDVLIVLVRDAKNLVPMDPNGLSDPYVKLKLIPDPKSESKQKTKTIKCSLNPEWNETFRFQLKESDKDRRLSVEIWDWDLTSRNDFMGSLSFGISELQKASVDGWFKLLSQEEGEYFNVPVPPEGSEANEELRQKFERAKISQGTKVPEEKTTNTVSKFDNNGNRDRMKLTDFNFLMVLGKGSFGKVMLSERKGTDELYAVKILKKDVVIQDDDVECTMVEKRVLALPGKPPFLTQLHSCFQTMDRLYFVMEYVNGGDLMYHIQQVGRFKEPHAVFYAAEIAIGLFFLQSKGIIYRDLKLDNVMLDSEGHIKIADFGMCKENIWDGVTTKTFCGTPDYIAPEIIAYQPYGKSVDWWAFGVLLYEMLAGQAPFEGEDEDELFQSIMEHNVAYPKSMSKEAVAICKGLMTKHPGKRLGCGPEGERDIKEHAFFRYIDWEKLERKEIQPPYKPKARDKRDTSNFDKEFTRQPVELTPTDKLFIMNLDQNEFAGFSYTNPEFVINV
The test system of experiment [5] is Macrophage. Put plainly: Inhibition of MHC2 expression in Sprague-Dawley rat peritoneal macrophages at 1.3 uM after 24 hrs by immunostaining. The experiment is classed as functional, cell-based.
The test system of another experiment is Microglia. Put plainly: Inhibition of IFN-gamma-induced IFN-gamma regulatory factor levels in Sprague-Dawley rat primary microglial cells by Western blotting. The experiment is classed as functional, cell-based. In general terms: A western blot detects proteins with antibodies after separation by electrophoresis.
The species named for experiment [6] is Rattus norvegicus. Put plainly: Suppression of IFN-gamma-induced PKCalpha/beta2 nuclear translocation in Sprague-Dawley rat primary microglial cells at 1.3 uM by Western blotting.
Experiment [7] is described as follows: Decrease in IFN-gamma-induced MHC2 protein levels in Sprague-Dawley rat primary microglial cells at 1.3 uM by Western blotting. The class given is functional, Microglia. The arrangement: scale not given: the % may be the effect or the level left.
Experiment [8] relates to Rattus norvegicus. Kind of experiment: Decrease in number of MOG-induced inflammatory lesions in spinal cord of dark agouti rat experimental allergic encephalomyelitis model at 45 mg/kg, ip administered twice a day at the first day of clinical signs and once a day for 14 days by hematoxylin and eosin staining. The class given is functional, organism-based. The arrangement: dose 45 mg/kg.

Experiment [9] deals with T1, Interferon regulatory factor 1 (Rattus norvegicus). Put plainly: Suppression of IFN-gamma-induced IFN-gamma regulatory factor 1 nuclear translocation in Sprague-Dawley rat primary microglial cells at 100 uM by Western blotting.
Experiment [10] in a line: Decrease in IFN-gamma-induced MHC2 protein levels in Sprague-Dawley rat primary microglial cells at 100 uM by Western blotting. The experiment is classed as functional, Microglia. The arrangement: scale not given: the % may be the effect or the level left.
For experiment [11], the species on record is Rattus norvegicus. Kind of experiment: Reduction in IFN-gamma-induced PKCalpha/beta2 phosphorylation in Sprague-Dawley rat primary microglial cells at 100 uM by Western blotting.
Experiment [12] can be described thus: Decrease in IFN-gamma-induced MHC2 expression in Sprague-Dawley rat primary microglial cells at 100 uM. The arrangement: scale not given: the % may be the effect or the level left. The experiment is classed as functional, cell-based. To be noted: Microglia.
Experiment [13] has as its system Rattus norvegicus. Put plainly: Decrease in accumulation of MHC 2+ cells in spinal cord of dark agouti rat experimental allergic encephalomyelitis model at 45 mg/kg, ip administered twice a day at the first day of clinical signs and once a day for 14 days by immunostaining. The experiment is classed as functional. To be noted: route intraperitoneal. The arrangement: scale not given: the % may be the effect or the level left.

Experiment [14] relates to Rattus norvegicus. Kind of experiment: Decrease in accumulation of CD11b+ cells in spinal cord of dark agouti rat experimental allergic encephalomyelitis model at 45 mg/kg, ip administered twice a day at the first day of clinical signs and once a day for 14 days by immunostaining. The class given is functional. The arrangement: scale not given: the % may be the effect or the level left. Particulars: route intraperitoneal.

Experiment [15] concerns Macrophage. Kind of experiment: Inhibition of MHC2 expression in Sprague-Dawley rat peritoneal macrophages at 100 uM after 24 hrs by immunostaining. The class given is functional, cell-based.
For experiment [16], the target named is Protein kinase C alpha type (Rattus norvegicus) (UniProt P05696). Put plainly: Decrease in PKCalpha phosphorylation in Sprague-Dawley rat peritoneal macrophages at 100 uM after 24 hrs.
For experiment [17], the system named is Rattus norvegicus. Put plainly: Decrease in size of MOG-induced inflammatory lesions in spinal cord of dark agouti rat experimental allergic encephalomyelitis model at 45 mg/kg, ip administered twice a day at the first day of clinical signs and once a day for 14 days by hematoxylin and eosin staining. The class given is functional, organism-based. The arrangement: dose 45 mg/kg.

Experiment [18] in a line: Decrease in IFN-gamma-induced MHC2 mRNA levels in Sprague-Dawley rat primary microglial cells at 100 uM after 24 hrs by RT-PCR. The experiment is classed as functional, Microglia. The arrangement: scale not given: the % may be the effect or the level left.
The nature of experiment [19]: Decrease in IFN-gamma-induced CIITA mRNA expression in Sprague-Dawley rat primary microglial cells at 100 uM after 24 hrs by RT-PCR. The class given is functional, cell-based. Particulars: Microglia.
For experiment [20], the species on record is Rattus norvegicus. Kind of experiment: Suppression of IFN-gamma-induced PKCalpha/beta2 nuclear translocation in Sprague-Dawley rat primary microglial cells at 100 uM by Western blotting.

Activity calls are given as the source filed them. The rule behind the calls is not given here.

By IC50 is commonly meant the concentration that gives 50% inhibition. Turning to `Cn1c2ccccc2c2c3c(c4c5ccccc5n(CCC#N)c4c21)CNC3=O` [GO-6976], the IC50 came to 2.3 nM in experiment [1] and 6.2 nM in [4]. For the same compound, the result (in experiment [2]; in the experiment with Macrophage [5]; in the experiment with Microglia; in the experiment filed under Rattus norvegicus [6]) was Active. In addition, the Activity in [3] stood at 55%; in [7] it was 80%.

In the case of `CN(C)c1ccc(O)c2c1C[C@H]1C[C@H]3[C@H](N(C)C)C(O)=C(C(N)=O)C(=O)[C@@]3(O)C(O)=C1C2=O` [MINOCYCLINE], the outcome (with Rattus norvegicus [8]; in [9]; in the experiment listed under Rattus norvegicus [11]; with Macrophage [15]; in experiment [16]; with Rattus norvegicus [17]) was Active. The outcome (in experiment [19]; in the experiment listed under Rattus norvegicus [20]) was Active. Moreover, the Activity was determined as 47% in experiment [10]; 55% in experiment [12]; 42% in the experiment with Rattus norvegicus [13]; 24% in the experiment on Rattus norvegicus [14]; 45% in experiment [18].
